Patent US5580552A, “7-glycosyloxybenzopyran derivative and antiallergic agent containing the derivative as active ingredient” (priority 1994, dated 1996)

Legend:
[1] = system: experimental asthma model (airway resistance); assay: Effect on experimental asthma model in guinea pigs (airway resistance); format: in vivo, guinea pigs (male hartley); details: Cavia porcellus, 0.5 h; for inhibition in vivo at 50 mg/kg: po, 50 mg/kg oral (TABLE 6)
Procedure: Effect on experimental asthma model in guinea pigs
The asthma is typical allergic disease and we carried out this pharmacological test by well known experimental asthma model in guinea pigs in order to comfirm that the compounds of the present invention suppress the asthma. In the following, the method of the pharmacological test will be explained.
Method: Male hartley guinea pigs were immunized by intraperitoneal injection of saline (1ml) containing 5 mg of ovalbumine (OVA) three times at interval of one week. 2 weeks after final immunization, the animals were challenged by inhalation of 1% OVA-saline solution for 1 minute and then the airway resistance of the animals were measured for 30 minutes with PULMOS-1 (Medical Interface Project Station Inc.) after the inhalation. The compounds of the present invention (test compounds) suspended in 0.5% CMCNa were given orally at a dose of 50 mg/kg. As positive control group, Disodium Cromoglicate (DSCG), well known anti-allergic agent, in saline were injected at a dose of 20 mg/kg into the vein of the animals. As vehicle control group, only 0.5% CMCNa solution were given orally. The inhibition (%) of the airway resistance in vehicle control group was calculated according to equation 5 and the result was shown in TABLE 6. Each experimental group consisted of 5 guinea pigs. [formula]
A: Maximum airway resistance in vehicle control group
B: Maximum airway resistance in test compounds group or positive control group

[2] = system: contact dermatitis induced by picryl chloride; assay: Effect on contact dermatitis induced by picryl chloride in mice; format: in vivo; details: for inhibition in vivo at 50 mg/kg: 50 mg/kg oral, 1 hour before and 16 hours after challenge, 24 hours after challenge
Procedure: Effect on contact dermatitis induced by picryl chloride in mice
The delayed type hypersensitization is inhibited by steroid drugs,but can not be effected by known anti-allergic agents. In the following, the method of the pharmacological test will be explained.
Method: Mice, shaved their abdominal skin on previous day, were immunized by applying 0.1 ml of acetone containing 7 mg of picryl chloride to the skin of the abdomen. 7 days after immunization, the thickness of the ear was measured with a dial thickness gauge, then mice were challenged by painting 5 μl of 1% picryl chloride olive oil solution to each side skin of left ear. 24 hours after challenge, the thickness of the left ear was measured again and the increase (%) of thickness was calculated according to equation 2. The compounds of the present invention (test compounds) suspended in 0.5% CMCNa were forcibly administered orally at a dose of 50 mg/kg at 1 hour before and 16 hours after challenge. As vehicle control group, only 0.5% CMCNa solution were administered orally, and as positive control group, Prednisolone, steroid hormone, and Tranilast were administered orally at the doses of 10 mg/kg and 100 mg/kg, respectively.
Increase (%)=(A-B)/B×100 (Equation 2)
A: thickness of the ear at 24 hours after challenge
B: thickness of the ear before challenge
Inhibition (%)=(C-D)/C×100 (equation 3)
C: The increase (%) in vehicle control group
D: The increase (%) in test compounds group or positive control group

[3] = system: homologous passive cutaneous anaphylaxis (PCA) reaction; assay: Effect on homologous passive cutaneous anaphylaxis (PCA) reaction in rats; format: in vivo, rats (male wistar); details: Rattus norvegicus, po, 0.5 h; for inhibition in vivo at 50 mg/kg: 50 mg/kg oral, 1 hour before challenge (TABLE 2)
Procedure: Effect on homologous passive cutaneous anaphylaxis (PCA) reaction in rats.
This experimental animal model is caused by immediate type allergic reaction namely, antigen-antibody reaction. In the following, the method of this pharmacological test will be explained.
Method: Male wistar rats (9 weeks old) were intradermally administered 0.05 ml of anti-serum against dinitrophenylated ascaris (DNP-As) into two sites on the shaved dorsal skin. 48 hours later, 7-glycosyloxybenzopyran derivatives (test compounds) suspended in 0.5% sodium carboxymethylcellulose (CMCNa) were given orally at a dose of 50 mg/kg to the animals. One hour after administration of Test compounds, the animals were induced anaphylaxis by injection of saline (1 ml) dissolving 5 mg of Evans Blue and 1 mg of Trinitrophenylated ascaris (TNP-As) into the tail vein of the animals. 30 minutes after induction of anaphylaxis, animals were anesthetized by ether and killed by bleeding, and were flayed dorsal skin. The determination of extravasated dye was performed according to the method of Katayama et al. (Microbiol. Immunol., Vol.22, P 89-101, 1978). As vehicle control group, only 0.5% CMCNa solution was administered orally, and as positive control group, Tranilast suspended in 0.5% CMCNa was administered orally at a dose of 100 mg/kg to the animals with the same method as the test compounds groups. Each experimental group consisted of 5 rats. [formula]

[4] = Mus musculus, po, 24 h, read-out: Inhibition (%) against the increase of ear thickness

Structure (SMILES) | inhibition in vivo at 20 mg/kg ([1]; iv, positive control DSCG, 20 mg/kg into the vein (TABLE 6)) [%] | inhibition in vivo at 10 mg/kg [2, 4] [%] | inhibition in vivo at 100 mg/kg ([3]; positive control, 100 mg/kg oral (TABLE 2)) [%] | inhibition in vivo at 100 mg/kg ([2]; Mus musculus, po, 24 h, positive control Tranilast, 100 mg/kg oral, read-out: Inhibition (%) against the increase of ear thickness) [%] | inhibition of delayed type hypersensitization ([2]; Tranilast, 100 mg/kg oral) | inhibition in vivo at 50 mg/kg [1] [%] | inhibition in vivo at 50 mg/kg [3] [%] | inhibition in vivo at 50 mg/kg [2, 4] [%]
O=C(O)c1cc(=O)c2c(OCC(O)COc3cccc4oc(C(=O)O)cc(=O)c34)cccc2o1 [DSCG, Disodium Cromoglicate, reference compound] | 51.2 | – | – | – | – | – | – | –
C[C@]12C=CC(=O)C=C1CC[C@@H]1[C@@H]2[C@@H](O)C[C@@]2(C)[C@H]1CC[C@]2(O)C(=O)CO [Prednisolone, reference compound] | – | 63.7 | – | – | – | – | – | –
COc1ccc(/C=C/C(=O)Nc2ccccc2C(=O)O)cc1OC [Tranilast, reference compound] | – | – | 54.6 | 4.3 | did not inhibit delayed type hypersensitization | – | – | –
COc1c(O)c2ccc(O[C@@H]3O[C@H](CO)[C@@H](O)[C@H](O)[C@H]3O)cc2oc1=O [compound 3, 3-methoxy-4-hydroxy-7-(β-D-glucopyranosyloxy)-2H-1-benzopyran-2-one] | – | – | – | – | – | 63.1 | 53.1 | 51.3
COc1c(O)c2ccc(O[C@H]3O[C@H](CO)[C@@H](O)[C@H](O)[C@@H]3O)cc2oc1=O [compound 8, 3-methoxy-4-hydroxy-7-(α-D-mannopyranosyloxy)-2H-1-benzopyran-2-one] | – | – | – | – | – | 59.2 | 49.2 | 50.3
COc1c(O)c2ccc(O[C@@H]3O[C@H](CO)[C@H](O)[C@H](O)[C@H]3O)cc2oc1=O [compound 9, 3-methoxy-4-hydroxy-7-(β-D-galactopyranosyloxy)-2H-1-benzopyran-2-one] | – | – | – | – | – | 60.3 | 54.5 | 52.1
CC(=O)Oc1c(O)c2ccc(O[C@@H]3O[C@H](CO)[C@@H](O)[C@H](O)[C@H]3O)cc2oc1=O [compound 11, 3-acetoxy-4-hydroxy-7-(β-D-glucopyranosyloxy)-2H-1-benzopyran-2-one] | – | – | – | – | – | 45.7 | 43.2 | 44.3
CCCCCCOc1c(OC(C)=O)c(=O)oc2cc(O[C@@H]3O[C@H](COC(C)=O)[C@H](OC(C)=O)[C@H](OC(C)=O)[C@H]3OC(C)=O)ccc12 [compound 15, 3-acetoxy-4-hexyloxy-7-(tetra-O-acetyl-β-D-galactopyranosyloxy)-2H-1-benzopyran-2-one] | – | – | – | – | – | 42.1 | 40.1 | 41.2
CCCCCCCCOc1c(OC(C)=O)c(=O)oc2cc(O[C@@H]3O[C@H](COC(C)=O)[C@@H](OC(C)=O)[C@H](OC(C)=O)[C@H]3OC(C)=O)ccc12 [compound 16, 3-acetoxy-4-octyloxy-7-(tetra-O-acetyl-β-D-glucopyranosyloxy)-2H-1-benzopyran-2-one] | – | – | – | – | – | 40.2 | 42.3 | 43.5
CCCCOc1c(O)c(=O)oc2cc(O[C@@H]3O[C@H](CO)[C@H](O)[C@H](O)[C@H]3O)ccc12 [compound 18, 3-hydroxy-4-butoxy-7-(β-D-galactopyranosyloxy)-2H-1-benzopyran-2-one] | – | – | – | – | – | 52.3 | 42.5 | 40.2
CCCCCCOc1c(O)c(=O)oc2cc(O[C@@H]3O[C@H](CO)[C@@H](O)[C@H](O)[C@H]3O)ccc12 [compound 19, 3-hydroxy-4-hexyloxy-7-(β-D-glucopyranosyloxy)-2H-1-benzopyran-2-one] | – | – | – | – | – | 65.2 | 44.9 | 47.1
CCCCCCOc1c(O)c(=O)oc2cc(O[C@H]3O[C@H](CO)[C@@H](O)[C@H](O)[C@@H]3O)ccc12 [compound 20, 3-hydroxy-4-hexyloxy-7-(α-D-mannopyranosyloxy)-2H-1-benzopyran-2-one] | – | – | – | – | – | 55.4 | 42.3 | 45.2
CCCCCCOc1c(O)c(=O)oc2cc(O[C@@H]3O[C@H](CO)[C@H](O)[C@H](O)[C@H]3O)ccc12 [compound 21, 3-hydroxy-4-hexyloxy-7-(β-D-galactopyranosyloxy)-2H-1-benzopyran-2-one] | – | – | – | – | – | 63.1 | 45.2 | 48.9
CCCCCCCCOc1c(O)c(=O)oc2cc(O[C@@H]3O[C@H](CO)[C@@H](O)[C@H](O)[C@H]3O)ccc12 [compound 22, 3-hydroxy-4-octyloxy-7-(β-D-glucopyranosyloxy)-2H-1-benzopyran-2-one] | – | – | – | – | – | 60.6 | 43.6 | 47.3
CCCCCCCCOc1c(O)c(=O)oc2cc(O[C@@H]3O[C@H](CO)[C@H](O)[C@H](O)[C@H]3O)ccc12 [compound 23, 3-hydroxy-4-octyloxy-7-(β-D-galactopyranosyloxy)-2H-1-benzopyran-2-one] | – | – | – | – | – | 61.5 | 44.7 | 49.3
CCCCCCCCOc1c(OCc2ccccc2)c2ccc(O[C@@H]3O[C@H](COCc4ccccc4)[C@@H](OCc4ccccc4)[C@H](OCc4ccccc4)[C@H]3OCc3ccccc3)cc2oc1=O [compound 35] | – | – | – | – | – | 38.2 | 42.2 | 40.5
CCCCOc1c(O)c2ccc(O[C@@H]3O[C@H](CO)[C@@H](O)[C@H](O)[C@H]3O)cc2oc1=O [compound 37] | – | – | – | – | – | 68.2 | 55.1 | 53.9
CCCCCCOc1c(O)c2ccc(O[C@@H]3O[C@H](CO)[C@@H](O)[C@H](O)[C@H]3O)cc2oc1=O [compound 38] | – | – | – | – | – | 75.5 | 59.3 | 63.7
CCCCCCCCOc1c(O)c2ccc(O[C@@H]3O[C@H](CO)[C@@H](O)[C@H](O)[C@H]3O)cc2oc1=O [compound 39] | – | – | – | – | – | 77.8 | 62.2 | 65.1
CCCCCCCCCCOc1c(O)c2ccc(O[C@@H]3O[C@H](CO)[C@@H](O)[C@H](O)[C@H]3O)cc2oc1=O [compound 40] | – | – | – | – | – | 73.1 | 57.3 | 62.1
CCCCCCCCCCCCOc1c(O)c2ccc(O[C@@H]3O[C@H](CO)[C@@H](O)[C@H](O)[C@H]3O)cc2oc1=O [compound 41] | – | – | – | – | – | 70.2 | 55.4 | 60.1
CC(C)Oc1c(O)c2ccc(O[C@@H]3O[C@H](CO)[C@@H](O)[C@H](O)[C@H]3O)cc2oc1=O [compound 42] | – | – | – | – | – | 68.5 | 56.4 | 58.3
CC1CCC(Oc2c(O)c3ccc(O[C@@H]4O[C@H](CO)[C@@H](O)[C@H](O)[C@H]4O)cc3oc2=O)CC1 (some centres unmarked) [compound 43] | – | – | – | – | – | 70.7 | 57.9 | 55.4
